# Species on record: Rattus norvegicus
# Experiment: Open TG-GATES - Regimen: Single
# Format: toxicity, organism-based, Sprague-Dawley
# Set-up: regimen Single, gender Male, age 6 weeks
# Details: in vivo, po, route gavage; for Bas / Eos / Fbg / Hb / Ht / Lym / MCHC / MCV / Mono / Neu / PT / Plat / RBC / Ret / WBC / APTT: tissue Blood; for KIDNEY_L / KIDNEY_R / KIDNEY_TOTAL: tissue Kidney; for LIVER: tissue Liver; for ALP / ALT / AST / BUN / CRE / Ca / Cl / DBIL / GLC / IP / K / LDH / Na / PL / RALB / TBIL / TG / TP / gamma-GTP / TC: tissue Plasma
# [1] = 300 mg/kg, 3 h, dose level Middle
# [2] = 300 mg/kg, 6 h, dose level Middle
# [3] = 300 mg/kg, 9 h, dose level Middle
# [4] = 300 mg/kg, 24 h, dose level Middle
# [5] = 1000 mg/kg, 3 h, dose level High
# [6] = 1000 mg/kg, 6 h, dose level High
# [7] = 1000 mg/kg, 9 h, dose level High
# [8] = 1000 mg/kg, 24 h, dose level High
smiles,measurement,setting,value
CN(C)C(=N)N=C(N)N [METFORMIN],Bas,[1],0%
same,Eos,[1],1%
same,Fbg,[1],256.8 mg/dL
same,Hb,[1],12.8 g/dL
same,Ht,[1],39.1%
same,Lym,[1],72.6%
same,MCHC,[1],32.9%
same,MCV,[1],64.2 fL
same,Mono,[1],2.8%
same,Neu,[1],23.2%
same,PT,[1],12.3 s
same,Plat,[1],125.2 x10_4/uL
same,RBC,[1],612.2 x10_4/ul
same,Ret,[1],10.1%
same,WBC,[1],96 x10_2/uL
same,KIDNEY_L,[1],0.9 g
same,KIDNEY_R,[1],0.9 g
same,KIDNEY_TOTAL,[1],1.7 g
same,LIVER,[1],8.1 g
same,ALP,[1],1196.4 IU/L
same,ALT,[1],58 IU/L
same,AST,[1],77.2 IU/L
same,BUN,[1],8.8 mg/dL
same,CRE,[1],0.2 mg/dL
same,Ca,[1],11.1 mg/dL
same,Cl,[1],106.2 meq/L
same,DBIL,[1],0.01 mg/dL
same,GLC,[1],156.2 mg/dL
same,IP,[1],9 mg/dL
same,K,[1],3.8 meq/L
same,LDH,[1],65 IU/L
same,Na,[1],140.6 meq/L
same,PL,[1],132.2 mg/dL
same,RALB,[1],2.5 g/dL
same,TBIL,[1],0.038 mg/dL
same,TG,[1],46.2 mg/dL
same,TP,[1],5.2 g/dL
same,gamma-GTP,[1],1.2 IU/L
same,TERMINAL_BW,[2],200 g
same,APTT,[2],16.3 s
same,Bas,[2],0.2%
same,Eos,[2],1%
same,Fbg,[2],254 mg/dL
same,Hb,[2],12.8 g/dL
same,Ht,[2],38.1%
same,Lym,[2],75.6%
same,MCHC,[2],33.6%
same,MCV,[2],63 fL
same,Mono,[2],3%
same,Neu,[2],20.2%
same,PT,[2],12.5 s
same,Plat,[2],113.5 x10_4/uL
same,RBC,[2],604.4 x10_4/ul
same,Ret,[2],9.6%
same,WBC,[2],95.4 x10_2/uL
same,KIDNEY_L,[2],0.9 g
same,KIDNEY_R,[2],0.9 g
same,KIDNEY_TOTAL,[2],1.7 g
same,LIVER,[2],7.3 g
same,ALP,[2],1116.6 IU/L
same,ALT,[2],85 IU/L
same,AST,[2],85.6 IU/L
same,BUN,[2],8.4 mg/dL
same,CRE,[2],0.2 mg/dL
same,Ca,[2],11 mg/dL
same,Cl,[2],105.6 meq/L
same,DBIL,[2],0.004 mg/dL
same,GLC,[2],153.4 mg/dL
same,IP,[2],10.3 mg/dL
same,K,[2],4.1 meq/L
same,LDH,[2],51.8 IU/L
same,Na,[2],140 meq/L
same,PL,[2],126 mg/dL
same,RALB,[2],2.5 g/dL
same,TBIL,[2],0.04 mg/dL
same,TG,[2],28.2 mg/dL
same,TP,[2],5.1 g/dL
same,gamma-GTP,[2],1 IU/L
same,TERMINAL_BW,[3],199.7 g
same,APTT,[3],15.9 s
same,Bas,[3],0%
same,Eos,[3],1%
same,Fbg,[3],250.2 mg/dL
same,Hb,[3],12.8 g/dL
same,Ht,[3],38.2%
same,Lym,[3],75%
same,MCHC,[3],33.6%
same,MCV,[3],64.1 fL
same,Mono,[3],2.6%
same,Neu,[3],20.4%
same,PT,[3],12.4 s
same,Plat,[3],111.7 x10_4/uL
same,RBC,[3],595.8 x10_4/ul
same,Ret,[3],10.1%
same,WBC,[3],82.7 x10_2/uL
same,KIDNEY_L,[3],0.8 g
same,KIDNEY_R,[3],0.9 g
same,KIDNEY_TOTAL,[3],1.7 g
same,LIVER,[3],6.8 g
same,ALP,[3],1220.2 IU/L
same,ALT,[3],61.2 IU/L
same,AST,[3],75.6 IU/L
same,BUN,[3],9 mg/dL
same,CRE,[3],0.1 mg/dL
same,Ca,[3],10.7 mg/dL
same,Cl,[3],106.6 meq/L
same,DBIL,[3],0.008 mg/dL
same,GLC,[3],162.6 mg/dL
same,IP,[3],10.2 mg/dL
same,K,[3],4 meq/L
same,LDH,[3],52.2 IU/L
same,Na,[3],140.8 meq/L
same,PL,[3],126.6 mg/dL
same,RALB,[3],2.5 g/dL
same,TBIL,[3],0.042 mg/dL
same,TG,[3],26.2 mg/dL
same,TP,[3],5 g/dL
same,gamma-GTP,[3],1.4 IU/L
same,TERMINAL_BW,[4],208.8 g
same,APTT,[4],16.1 s
same,Bas,[4],0%
same,Eos,[4],0.8%
same,Fbg,[4],235.6 mg/dL
same,Hb,[4],13.2 g/dL
same,Ht,[4],39.1%
same,Lym,[4],75.2%
same,MCHC,[4],33.8%
same,MCV,[4],63.3 fL
same,Mono,[4],3%
same,Neu,[4],20.6%
same,PT,[4],12.5 s
same,Plat,[4],112.7 x10_4/uL
same,RBC,[4],617.8 x10_4/ul
same,Ret,[4],9.3%
same,WBC,[4],73.1 x10_2/uL
same,KIDNEY_L,[4],0.9 g
same,KIDNEY_R,[4],0.9 g
same,KIDNEY_TOTAL,[4],1.8 g
same,LIVER,[4],9.7 g
same,ALP,[4],1591.2 IU/L
same,ALT,[4],52.4 IU/L
same,AST,[4],77.8 IU/L
same,BUN,[4],15.2 mg/dL
same,CRE,[4],0.2 mg/dL
same,Ca,[4],11.2 mg/dL
same,Cl,[4],104.6 meq/L
same,DBIL,[4],0.014 mg/dL
same,GLC,[4],178 mg/dL
same,IP,[4],8.9 mg/dL
same,K,[4],4.1 meq/L
same,LDH,[4],80 IU/L
same,Na,[4],141.4 meq/L
same,PL,[4],146.6 mg/dL
same,RALB,[4],2.5 g/dL
same,TBIL,[4],0.03 mg/dL
same,TC,[4],83.4 mg/dL
same,TG,[4],87 mg/dL
same,TP,[4],5.4 g/dL
same,gamma-GTP,[4],1 IU/L
same,TERMINAL_BW,[5],201 g
same,APTT,[5],16.6 s
same,Bas,[5],0.2%
same,Eos,[5],1%
same,Fbg,[5],250.4 mg/dL
same,Hb,[5],13.4 g/dL
same,Ht,[5],40.4%
same,Lym,[5],78.6%
same,MCHC,[5],33.1%
same,MCV,[5],64 fL
same,Mono,[5],4.2%
same,Neu,[5],15.2%
same,PT,[5],12.2 s
same,Plat,[5],118.4 x10_4/uL
same,RBC,[5],631.8 x10_4/ul
same,Ret,[5],9.7%
same,WBC,[5],85.9 x10_2/uL
same,KIDNEY_L,[5],0.9 g
same,KIDNEY_R,[5],0.9 g
same,KIDNEY_TOTAL,[5],1.8 g
same,LIVER,[5],8.2 g
same,ALP,[5],1303.6 IU/L
same,ALT,[5],60.8 IU/L
same,AST,[5],79.2 IU/L
same,BUN,[5],8.8 mg/dL
same,CRE,[5],0.2 mg/dL
same,Ca,[5],11.1 mg/dL
same,Cl,[5],106.6 meq/L
same,DBIL,[5],0.008 mg/dL
same,GLC,[5],149 mg/dL
same,IP,[5],9.3 mg/dL
same,K,[5],3.8 meq/L
same,LDH,[5],63 IU/L
same,Na,[5],141.4 meq/L
same,PL,[5],130.2 mg/dL
same,RALB,[5],2.6 g/dL
same,TBIL,[5],0.038 mg/dL
same,TG,[5],47 mg/dL
same,TP,[5],5.4 g/dL
same,gamma-GTP,[5],1 IU/L
same,TERMINAL_BW,[6],201.2 g
same,APTT,[6],17.8 s
same,Bas,[6],0%
same,Eos,[6],1%
same,Fbg,[6],259.6 mg/dL
same,Hb,[6],13 g/dL
same,Ht,[6],39%
same,Lym,[6],72.4%
same,MCHC,[6],33.2%
same,MCV,[6],64.7 fL
same,Mono,[6],3.4%
same,Neu,[6],22.4%
same,PT,[6],12.3 s
same,Plat,[6],118.4 x10_4/uL
same,RBC,[6],602.6 x10_4/ul
same,Ret,[6],9.9%
same,WBC,[6],87.3 x10_2/uL
same,KIDNEY_L,[6],0.8 g
same,KIDNEY_R,[6],0.8 g
same,KIDNEY_TOTAL,[6],1.7 g
same,LIVER,[6],7.3 g
same,ALP,[6],996 IU/L
same,ALT,[6],104.2 IU/L
same,AST,[6],88.4 IU/L
same,BUN,[6],9.2 mg/dL
same,CRE,[6],0.1 mg/dL
same,Ca,[6],11.1 mg/dL
same,Cl,[6],106.2 meq/L
same,DBIL,[6],0.004 mg/dL
same,GLC,[6],137 mg/dL
same,IP,[6],10 mg/dL
same,K,[6],3.7 meq/L
same,LDH,[6],52 IU/L
same,Na,[6],140.8 meq/L
same,PL,[6],143.4 mg/dL
same,RALB,[6],2.5 g/dL
same,TBIL,[6],0.05 mg/dL
same,TC,[6],86.2 mg/dL
same,TG,[6],20.6 mg/dL
same,TP,[6],5.2 g/dL
same,gamma-GTP,[6],1 IU/L
same,TERMINAL_BW,[7],199.9 g
same,APTT,[7],16.4 s
same,Bas,[7],0.2%
same,Eos,[7],1%
same,Fbg,[7],251.6 mg/dL
same,Hb,[7],13 g/dL
same,Ht,[7],38.9%
same,Lym,[7],77%
same,MCHC,[7],33.2%
same,MCV,[7],65.9 fL
same,Mono,[7],3%
same,Neu,[7],18.6%
same,PT,[7],12.5 s
same,Plat,[7],112.8 x10_4/uL
same,RBC,[7],591.6 x10_4/ul
same,Ret,[7],10.3%
same,WBC,[7],89.9 x10_2/uL
same,KIDNEY_L,[7],0.8 g
same,KIDNEY_R,[7],0.8 g
same,KIDNEY_TOTAL,[7],1.7 g
same,LIVER,[7],6.8 g
same,ALP,[7],1282.4 IU/L
same,ALT,[7],84.4 IU/L
same,AST,[7],83.2 IU/L
same,BUN,[7],10 mg/dL
same,CRE,[7],0.1 mg/dL
same,Ca,[7],10.9 mg/dL
same,Cl,[7],107.4 meq/L
same,DBIL,[7],0.008 mg/dL
same,GLC,[7],113.8 mg/dL
same,IP,[7],10.6 mg/dL
same,K,[7],3.7 meq/L
same,LDH,[7],46 IU/L
same,Na,[7],142.2 meq/L
same,PL,[7],138.6 mg/dL
same,RALB,[7],2.5 g/dL
same,TBIL,[7],0.042 mg/dL
same,TG,[7],20.6 mg/dL
same,TP,[7],5.1 g/dL
same,gamma-GTP,[7],1.2 IU/L
same,TERMINAL_BW,[8],202.6 g
same,APTT,[8],15.2 s
same,Bas,[8],0%
same,Eos,[8],1%
same,Fbg,[8],244.6 mg/dL
same,Hb,[8],12.8 g/dL
same,Ht,[8],38.3%
same,Lym,[8],76.2%
same,MCHC,[8],33.5%
same,MCV,[8],64.5 fL
same,Mono,[8],3.6%
same,Neu,[8],18.6%
same,PT,[8],12.6 s
same,Plat,[8],114.2 x10_4/uL
same,RBC,[8],593.4 x10_4/ul
same,Ret,[8],9.4%
same,WBC,[8],98.2 x10_2/uL
same,KIDNEY_L,[8],0.9 g
same,KIDNEY_R,[8],0.9 g
same,KIDNEY_TOTAL,[8],1.8 g
same,LIVER,[8],8.8 g
same,ALP,[8],1502.2 IU/L
same,ALT,[8],42.6 IU/L
same,AST,[8],74.6 IU/L
same,BUN,[8],15.4 mg/dL
same,CRE,[8],0.2 mg/dL
same,Ca,[8],11.3 mg/dL
same,Cl,[8],104.2 meq/L
same,DBIL,[8],0.012 mg/dL
same,GLC,[8],182.4 mg/dL
same,IP,[8],8.8 mg/dL
same,K,[8],4.3 meq/L
same,LDH,[8],57 IU/L
same,Na,[8],140.8 meq/L
same,PL,[8],135.4 mg/dL
same,RALB,[8],2.5 g/dL
same,TBIL,[8],0.038 mg/dL
same,TG,[8],53.2 mg/dL
same,TP,[8],5.4 g/dL
same,gamma-GTP,[8],1 IU/L
